pIC50: −log10 of the molar value. Like-named read-outs stand apart in the source and are kept apart here.
What was measured:
Assay type in all cases: biochemical
[1] = biological target: T1, recombinant mouse FAPα (rmFAPα) (Mus musculus, UniProt P97321); experiment: FAPα enzymatic exopeptidase (dipeptidase) activity assay; conditions: 1 μM test compound; Z-Gly-Pro-AMC substrate; read-out: rmFAPα (% exo inh @ 1 μM)
T1 construct: purchased R&S system (so in the source)
T1 sequence (P97321 1-761): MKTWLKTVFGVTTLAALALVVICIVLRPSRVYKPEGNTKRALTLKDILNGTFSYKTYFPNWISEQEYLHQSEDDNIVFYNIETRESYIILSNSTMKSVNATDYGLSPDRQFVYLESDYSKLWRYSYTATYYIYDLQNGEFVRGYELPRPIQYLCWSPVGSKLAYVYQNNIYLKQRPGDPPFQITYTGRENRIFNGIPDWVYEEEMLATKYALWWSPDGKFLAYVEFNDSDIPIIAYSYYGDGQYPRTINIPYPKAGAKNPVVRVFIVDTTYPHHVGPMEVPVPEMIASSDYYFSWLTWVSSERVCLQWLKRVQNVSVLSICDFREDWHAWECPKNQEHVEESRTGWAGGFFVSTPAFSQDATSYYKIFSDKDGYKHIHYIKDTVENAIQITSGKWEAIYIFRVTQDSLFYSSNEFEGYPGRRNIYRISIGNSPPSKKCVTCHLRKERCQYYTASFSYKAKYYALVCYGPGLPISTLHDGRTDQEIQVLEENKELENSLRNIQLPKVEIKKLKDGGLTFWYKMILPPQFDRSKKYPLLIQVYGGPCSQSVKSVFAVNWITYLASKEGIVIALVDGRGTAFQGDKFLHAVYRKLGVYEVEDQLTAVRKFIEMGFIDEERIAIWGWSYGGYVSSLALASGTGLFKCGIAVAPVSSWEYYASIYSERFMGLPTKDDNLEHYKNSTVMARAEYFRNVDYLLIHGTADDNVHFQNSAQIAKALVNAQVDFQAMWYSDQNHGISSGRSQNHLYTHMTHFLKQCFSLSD
Experimental: FAPα enzymatic exopeptidase (dipeptidase) activity assay. […] 7-Amino-4-Methylcoumarin (AMC) release was detected by measuring fluorescence at Ex/Em 380/460 nm using a Multifunction Microplate Reader (Synergy 4, Biotek). All measurements were carried out in duplicate. […] For the calculations, the average measurements from reactions containing only vehicle and substrate, without enzyme, were used as a blank and were subtracted from the rest of the measurements. Percent inhibition was calculated using the average measurements from reactions containing vehicle, enzyme, and substrate as the maximum of enzymatic activity. Measurements were performed as a single point.

[2] = biological target: T2, recombinant human PREP (rhPREP) (Homo sapiens, UniProt P48147); experiment: PREP enzymatic activity assay; conditions: Z-Gly-Pro-AMC substrate
T2 sequence (P48147 1-710): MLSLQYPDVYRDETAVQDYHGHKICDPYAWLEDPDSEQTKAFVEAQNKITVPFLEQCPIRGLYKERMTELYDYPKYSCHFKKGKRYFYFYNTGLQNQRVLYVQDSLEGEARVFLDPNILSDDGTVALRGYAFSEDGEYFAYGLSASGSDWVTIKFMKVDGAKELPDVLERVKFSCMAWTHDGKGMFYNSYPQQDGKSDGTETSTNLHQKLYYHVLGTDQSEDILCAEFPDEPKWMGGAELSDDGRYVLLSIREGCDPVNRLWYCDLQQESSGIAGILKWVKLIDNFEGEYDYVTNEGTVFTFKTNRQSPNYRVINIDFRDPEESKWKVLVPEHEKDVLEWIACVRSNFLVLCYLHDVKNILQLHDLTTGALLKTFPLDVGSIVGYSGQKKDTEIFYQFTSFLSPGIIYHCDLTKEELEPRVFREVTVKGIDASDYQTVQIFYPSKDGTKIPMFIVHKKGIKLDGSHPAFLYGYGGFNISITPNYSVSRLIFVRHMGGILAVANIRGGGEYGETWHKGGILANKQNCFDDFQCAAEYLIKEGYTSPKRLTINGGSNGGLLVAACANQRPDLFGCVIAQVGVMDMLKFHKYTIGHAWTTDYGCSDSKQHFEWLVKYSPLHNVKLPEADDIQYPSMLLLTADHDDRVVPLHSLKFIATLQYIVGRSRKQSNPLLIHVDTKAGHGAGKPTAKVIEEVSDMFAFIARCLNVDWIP
Experimental: (§1) 7-Amino-4-Methylcoumarin (AMC) release was detected by measuring fluorescence at Ex/Em 380/460 nm using a Multifunction Microplate Reader (Synergy 4, Biotek). All measurements were carried out in triplicate.

[3] = biological target: T3, recombinant human FAPα (rhFAPα) (Homo sapiens, UniProt Q12884); experiment: FAPα enzymatic exopeptidase (dipeptidase) activity assay; conditions: for inhibition at 1 µM: 1 μM test compound, Z-Gly-Pro-AMC substrate, read-out: rhFAPα (% exo inh @ 1 μM); for pIC50: exopeptidase, read-out: rhFAPα (exo IC50)
T3 construct: purchased R&S system (so in the source)
T3 sequence (Q12884 1-760): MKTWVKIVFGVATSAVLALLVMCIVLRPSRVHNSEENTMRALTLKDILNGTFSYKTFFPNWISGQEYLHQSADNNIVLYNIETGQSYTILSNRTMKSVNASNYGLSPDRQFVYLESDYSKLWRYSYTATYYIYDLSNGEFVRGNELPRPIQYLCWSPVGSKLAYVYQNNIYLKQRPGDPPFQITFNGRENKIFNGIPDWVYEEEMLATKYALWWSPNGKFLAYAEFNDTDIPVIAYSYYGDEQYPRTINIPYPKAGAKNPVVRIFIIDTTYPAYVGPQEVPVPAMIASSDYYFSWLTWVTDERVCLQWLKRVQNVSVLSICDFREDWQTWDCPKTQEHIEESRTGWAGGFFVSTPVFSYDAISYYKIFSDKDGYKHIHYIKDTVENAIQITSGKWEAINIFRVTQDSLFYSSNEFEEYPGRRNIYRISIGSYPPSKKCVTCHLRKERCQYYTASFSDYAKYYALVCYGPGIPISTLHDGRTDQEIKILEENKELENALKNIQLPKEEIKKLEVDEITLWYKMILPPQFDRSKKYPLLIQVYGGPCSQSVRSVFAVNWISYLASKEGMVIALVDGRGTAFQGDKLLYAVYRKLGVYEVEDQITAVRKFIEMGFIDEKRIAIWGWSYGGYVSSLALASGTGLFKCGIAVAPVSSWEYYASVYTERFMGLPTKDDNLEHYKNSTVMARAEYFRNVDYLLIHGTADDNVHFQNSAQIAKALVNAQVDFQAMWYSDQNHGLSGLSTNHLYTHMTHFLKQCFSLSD

[4] = biological target: T4, recombinant human DPP9 (rhDPP9) (Homo sapiens, UniProt Q86TI2); experiment: DPP9 enzymatic activity assay; conditions: H-Gly-Pro-AMC substrate
T4 construct: purchased R&S system (so in the source)
T4 sequence (Q86TI2 whole entry): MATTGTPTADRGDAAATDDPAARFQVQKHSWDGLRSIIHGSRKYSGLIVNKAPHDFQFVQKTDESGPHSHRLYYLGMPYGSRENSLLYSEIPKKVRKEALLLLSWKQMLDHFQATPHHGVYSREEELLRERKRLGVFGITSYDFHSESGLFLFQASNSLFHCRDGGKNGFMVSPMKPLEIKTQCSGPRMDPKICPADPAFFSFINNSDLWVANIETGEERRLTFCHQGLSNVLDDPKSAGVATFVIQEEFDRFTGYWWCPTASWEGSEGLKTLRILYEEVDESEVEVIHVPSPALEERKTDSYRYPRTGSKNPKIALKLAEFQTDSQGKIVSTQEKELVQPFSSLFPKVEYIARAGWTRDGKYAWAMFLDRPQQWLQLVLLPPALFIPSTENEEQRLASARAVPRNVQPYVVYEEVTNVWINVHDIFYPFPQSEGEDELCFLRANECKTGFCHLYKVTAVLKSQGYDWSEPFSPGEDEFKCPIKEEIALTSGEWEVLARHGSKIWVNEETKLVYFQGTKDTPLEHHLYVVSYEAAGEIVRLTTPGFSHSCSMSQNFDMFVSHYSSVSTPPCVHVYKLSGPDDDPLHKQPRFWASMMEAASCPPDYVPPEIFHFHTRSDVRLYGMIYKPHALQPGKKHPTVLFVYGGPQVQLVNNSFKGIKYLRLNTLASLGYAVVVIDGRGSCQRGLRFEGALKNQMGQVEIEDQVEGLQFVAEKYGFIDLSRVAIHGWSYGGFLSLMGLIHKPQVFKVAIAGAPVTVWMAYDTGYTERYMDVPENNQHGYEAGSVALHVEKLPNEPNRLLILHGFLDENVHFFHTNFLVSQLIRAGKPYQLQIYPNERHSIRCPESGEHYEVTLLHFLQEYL
Experimental: as §1

[5] = biological target: T5, recombinant human DPPIV (rhDPPIV) (Homo sapiens, UniProt P27487); experiment: DPPIV enzymatic activity assay; conditions: H-Gly-Pro-pNA substrate
T5 construct: purchased R&S system (so in the source)
T5 sequence (P27487 whole entry): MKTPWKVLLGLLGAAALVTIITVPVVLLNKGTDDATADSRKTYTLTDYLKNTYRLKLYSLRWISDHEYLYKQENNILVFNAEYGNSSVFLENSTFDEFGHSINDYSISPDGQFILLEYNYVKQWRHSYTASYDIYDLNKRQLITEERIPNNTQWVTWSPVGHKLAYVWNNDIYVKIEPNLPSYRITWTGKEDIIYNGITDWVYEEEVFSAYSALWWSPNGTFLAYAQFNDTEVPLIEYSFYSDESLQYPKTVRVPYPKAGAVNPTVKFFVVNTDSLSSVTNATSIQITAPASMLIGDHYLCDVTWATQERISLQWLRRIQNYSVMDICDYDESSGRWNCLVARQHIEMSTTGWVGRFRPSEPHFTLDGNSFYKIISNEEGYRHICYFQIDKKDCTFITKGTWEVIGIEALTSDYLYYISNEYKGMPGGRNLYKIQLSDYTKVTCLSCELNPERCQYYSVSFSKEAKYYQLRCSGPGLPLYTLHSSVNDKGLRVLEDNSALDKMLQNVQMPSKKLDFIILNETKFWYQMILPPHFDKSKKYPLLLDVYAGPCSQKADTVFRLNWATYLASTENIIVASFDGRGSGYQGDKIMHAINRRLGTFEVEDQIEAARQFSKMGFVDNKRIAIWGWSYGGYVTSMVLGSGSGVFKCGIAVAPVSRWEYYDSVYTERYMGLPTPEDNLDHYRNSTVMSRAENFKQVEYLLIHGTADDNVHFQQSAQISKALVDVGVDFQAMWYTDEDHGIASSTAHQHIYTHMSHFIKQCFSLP

mouse plasma FAPα = biological target: T6, mouse plasma FAPα (Mus musculus, UniProt P97321); experiment: FAPα enzymatic activity in mouse plasma; conditions: C57BL/6 mouse plasma; PRXS-AMC substrate; read-out: mouse plasma FAPα (PRXS-AMC) (exo IC50)
T6 construct: from tissue; host or cells: mouse plasma (C57BL/6, EDTA)
T6 sequence (P97321 24-761 limits assumed): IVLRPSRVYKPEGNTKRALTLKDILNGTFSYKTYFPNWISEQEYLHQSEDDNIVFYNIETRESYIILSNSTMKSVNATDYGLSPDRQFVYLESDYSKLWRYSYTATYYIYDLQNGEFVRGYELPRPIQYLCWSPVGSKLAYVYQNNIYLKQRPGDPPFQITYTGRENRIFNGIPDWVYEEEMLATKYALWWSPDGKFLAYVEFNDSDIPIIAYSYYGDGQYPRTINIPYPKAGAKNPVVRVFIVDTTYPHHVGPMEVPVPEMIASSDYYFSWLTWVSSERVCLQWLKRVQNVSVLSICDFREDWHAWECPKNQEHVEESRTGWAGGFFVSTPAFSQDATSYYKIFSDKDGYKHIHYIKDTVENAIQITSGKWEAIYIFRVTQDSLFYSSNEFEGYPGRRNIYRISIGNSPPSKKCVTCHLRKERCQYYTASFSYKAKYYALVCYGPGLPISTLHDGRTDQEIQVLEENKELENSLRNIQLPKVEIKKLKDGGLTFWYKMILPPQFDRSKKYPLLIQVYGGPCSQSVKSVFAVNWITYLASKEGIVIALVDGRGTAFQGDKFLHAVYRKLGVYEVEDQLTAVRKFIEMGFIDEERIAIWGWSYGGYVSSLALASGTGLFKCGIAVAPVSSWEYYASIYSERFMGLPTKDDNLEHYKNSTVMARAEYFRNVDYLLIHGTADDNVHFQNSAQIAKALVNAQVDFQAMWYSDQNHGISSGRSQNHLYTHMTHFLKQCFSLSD
Experimental: The blood sample was immediately centrifuged at approximately 9000 g at 4° C. for 5 minutes. Plasma was separated and stored at −80° C. in aliquots of 300 μL. […] The assay was performed for 1 hour at 37° C. protected from light. 7-Amino-4-Methylcoumarin (AMC) release was detected measuring fluorescence at an excitation wavelength of 380 nm and an emission wavelength of 460 nm using a Multifunction Microplate Reader (Synergy 4, Biotek). All measurements were carried out at least as a single point.

mouse plasma DPPIV = biological target: T7, mouse plasma DPPIV (Mus musculus, UniProt P28843); experiment: DPPIV enzymatic activity in mouse plasma; conditions: C57BL/6 mouse plasma; H-Gly-Pro-AMC substrate
T7 construct: from tissue; host or cells: mouse plasma (C57BL/6, EDTA)
T7 sequence (P28843 37-760 limits assumed): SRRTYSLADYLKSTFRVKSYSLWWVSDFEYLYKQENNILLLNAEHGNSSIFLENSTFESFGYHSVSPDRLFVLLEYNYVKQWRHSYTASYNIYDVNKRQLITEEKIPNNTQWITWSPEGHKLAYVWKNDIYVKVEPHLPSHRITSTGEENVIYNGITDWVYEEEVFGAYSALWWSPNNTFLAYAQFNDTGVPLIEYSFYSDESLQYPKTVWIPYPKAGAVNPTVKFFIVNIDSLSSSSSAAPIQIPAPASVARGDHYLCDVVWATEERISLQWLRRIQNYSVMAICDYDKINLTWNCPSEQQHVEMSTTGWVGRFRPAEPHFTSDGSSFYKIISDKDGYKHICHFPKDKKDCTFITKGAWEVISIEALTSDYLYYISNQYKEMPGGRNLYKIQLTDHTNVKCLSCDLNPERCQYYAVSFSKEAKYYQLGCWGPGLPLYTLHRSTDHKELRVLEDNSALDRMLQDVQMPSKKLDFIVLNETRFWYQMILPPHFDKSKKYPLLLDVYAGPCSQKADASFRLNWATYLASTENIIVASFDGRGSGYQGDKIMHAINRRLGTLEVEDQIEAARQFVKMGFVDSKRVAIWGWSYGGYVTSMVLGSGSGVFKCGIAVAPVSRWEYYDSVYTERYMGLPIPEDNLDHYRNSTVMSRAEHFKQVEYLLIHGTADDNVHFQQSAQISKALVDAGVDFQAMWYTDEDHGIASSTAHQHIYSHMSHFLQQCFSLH
Experimental: Approximately 500 μL of whole blood from one C57BL/6 mouse was harvested into BD Microtainer® tubes (K2) EDTA (#365974, Becton Dickinson and Co.) via terminal cardiac puncture. The blood sample was immediately centrifuged at approximately 9000 g at 4° C. for 5 minutes. Plasma was separated and stored at −80° C. in aliquots of 300 μL. To assay baseline DPPIV enzymatic exopeptidase activity, 5 μL of thawed, mouse plasma was diluted (1:5) in buffer (100 mM Tris-HCl, 400 mM NaCl, 50 mM salicylic acid, 1 mM EDTA, pH 7.5) and mixed with 35 µL of the same buffer before being pre-incubated with different concentrations of 10 μL of test compounds or DMSO vehicle for 15 minutes at 37° C. in 96-well black plates (Nunc, #237108). After pre-incubation, 50 μL of 200 μM dipeptide substrate H-Gly-Pro-AMC (Bachem, #L-1225) was added to the mixture. The assay was performed for 1 hour at 37° C. 7-Amino-4-Methylcoumarin (AMC) release was detected measuring fluorescence at an excitation wavelength of 360 nm and an emission wavelength of 460 nm using a Multifunction Microplate Reader (Synergy 4, Biotek). All measurements were carried out at least in duplicate.

Row | Structure (SMILES) | inhibition at 1 µM [1] | pIC50 [2] | inhibition at 1 µM [3] | pIC50 ([3]; Table 2, Z-Gly-Pro-AMC) | pIC50 ([3]; Table 3) | pIC50 [4] | pIC50 [5] | pIC50 (mouse plasma FAPα) | pIC50 (mouse plasma DPPIV)
1 | N#C[C@@H]1CC(F)(F)CN1C(=O)CNC(=O)c1ccc2nc(O)ccc2c1 [Compound 10, (S)—N-(2-(2-cyano-4,4-difluoropyrrolidin-1-yl)-2-oxoethyl)-2-hydroxyquinoline-6-carboxamide] | 25 to 50% | – | – | – | – | – | – | – | –
2 | N#C[C@@H]1CC(F)(F)CN1C(=O)CNC(=O)c1ccc(C(N)=O)cc1 [Compound 11, (S)—N-(2-(2-cyano-4,4-difluoropyrrolidin-1-yl)-2-oxoethyl)terephthalamide] | 25 to 50% | – | – | – | – | – | – | – | –
3 | N#Cc1ccc(C(=O)NCC(=O)N2CC(F)(F)C[C@H]2C#N)cc1C(F)(F)F [Compound 12, (S)-4-cyano-N-(2-(2-cyano-4,4-difluoropyrrolidin-1-yl)-2-oxoethyl)-3-(trifluoromethyl)benzamide] | 25 to 50% | – | – | – | – | – | – | – | –
4 | N#C[C@@H]1CC(F)(F)CN1C(=O)CNC(=O)c1ccncc1-c1ccc(Cl)c(F)c1 [Compound 111, (S)-3-(4-chloro-3-fluorophenyl)-N-(2-(2-cyano-4,4-difluoropyrrolidin-1-yl)-2-oxoethyl)isonicotinamide] | – | < 5.00 | > 50% | > 6.00 | > 6.00 | < 5.00 | 5.00 to 6.00 | > 6.00 | 5.00 to 6.00
5 | N#C[C@@H]1CC(F)(F)CN1C(=O)CNC(=O)c1c[nH]c(=O)cc1Cc1ccccc1 [Compound 121, (S)-4-benzyl-N-(2-(2-cyano-4,4-difluoropyrrolidin-1-yl)-2-oxoethyl)-6-oxo-1,6-dihydropyridine-3-carboxamide] | – | 5.00 to 6.00 | > 50% | > 6.00 | > 6.00 | 5.00 to 6.00 | < 5.00 | > 6.00 | < 5.00
6 | CC(c1ccccc1)c1cnccc1C(=O)NCC(=O)N1CC(F)(F)C[C@H]1C#N (stereo partly drawn) [Compound 123, N-(2-((S)-2-cyano-4,4-difluoropyrrolidin-1-yl)-2-oxoethyl)-3-(1-phenylethyl)isonicotinamide] | – | 5.00 to 6.00 | > 50% | > 6.00 | > 6.00 | 5.00 to 6.00 | < 5.00 | – | < 5.00
7 | N#C[C@@H]1CC(F)(F)CN1C(=O)CNC(=O)c1cn(-c2ccccc2)c(=O)c2ccccc12 [Example 2, (S)—N-(2-(2-cyano-4,4-difluoropyrrolidin-1-yl)-2-oxoethyl)-1-oxo-2-phenyl-1,2-dihydroisoquinoline-4-carboxamide] | 25 to 50% | – | – | – | – | – | – | – | –
8 | N#C[C@@H]1CC(F)(F)CN1C(=O)CNC(=O)c1cn(C2CC2)c(=O)c2ccccc12 [Example 3, (S)—N-(2-(2-cyano-4,4-difluoropyrrolidin-1-yl)-2-oxoethyl)-2-cyclopropyl-1-oxo-1,2-dihydroisoquinoline-4-carboxamide] | 25 to 50% | – | – | – | – | – | – | – | –
